Test results as given in the supplement of paper PMC10307832.

What was measured:
Assay in all cases: relative viability (nuclei count vs DMSO), 5 days (fraction); higher = more cells survive
Alisertib + Trametinib = compound: COc1cc(Nc2ncc3c(n2)-c2ccc(Cl)cc2C(c2c(F)cccc2OC)=NC3)ccc1C(=O)O [Alisertib] + CC(=O)Nc1cccc(-n2c(=O)n(C3CC3)c(=O)c3c(Nc4ccc(I)cc4F)n(C)c(=O)c(C)c32)c1 [Trametinib] (partner 0.02 µM)
Summary of the method: (§1)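 One day after seeding in 1536-well plates, lung cancer cell lines were dosed by pin tool. Dosing was either single-drug or a fixed anchor-drug dose plus five library-drug doses (not always all listed) in √10 steps. After 5 days, nuclei were stained in one fix-and-stain step and counted on 4× images, and relative viability is the nuclei count of treated wells over that of vehicle wells, given as the median of duplicate plates.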

Alisertib + Crizotinib = compound: COc1cc(Nc2ncc3c(n2)-c2ccc(Cl)cc2C(c2c(F)cccc2OC)=NC3)ccc1C(=O)O [Alisertib] + C[C@@H](Oc1cc(-c2cnn(C3CCNCC3)c2)cnc1N)c1c(Cl)ccc(F)c1Cl [Crizotinib] (partner 1 µM)
Summary of the method: as §1

Alisertib + Phenformin = compound: COc1cc(Nc2ncc3c(n2)-c2ccc(Cl)cc2C(c2c(F)cccc2OC)=NC3)ccc1C(=O)O [Alisertib] + N=C(N)NC(=N)NCCc1ccccc1 [Phenformin] (partner 250 µM)
Summary of the method: as §1

Alisertib + OSI-027 = compound: COc1cc(Nc2ncc3c(n2)-c2ccc(Cl)cc2C(c2c(F)cccc2OC)=NC3)ccc1C(=O)O [Alisertib] + COc1cccc2cc(-c3nc([C@H]4CC[C@H](C(=O)O)CC4)n4ncnc(N)c34)[nH]c12 [OSI-027] (partner 0.5 µM)
Summary of the method: as §1

| Cell Line | relative viability (Alisertib + Trametinib; first compound 0.005 µM) | relative viability (Alisertib + Trametinib; first compound 0.01581 µM) | relative viability (Alisertib + Trametinib; first compound 0.05 µM) | relative viability (Alisertib + Trametinib; first compound 0.1581 µM) | relative viability (Alisertib + Trametinib; first compound 0.5 µM) | relative viability (Alisertib + Crizotinib; first compound 0.005 µM) | relative viability (Alisertib + Crizotinib; first compound 0.01581 µM) | relative viability (Alisertib + Crizotinib; first compound 0.05 µM) | relative viability (Alisertib + Crizotinib; first compound 0.1581 µM) | relative viability (Alisertib + Crizotinib; first compound 0.5 µM) | relative viability (Alisertib + Phenformin; first compound 0.005 µM) | relative viability (Alisertib + Phenformin; first compound 0.01581 µM) | relative viability (Alisertib + Phenformin; first compound 0.05 µM) | relative viability (Alisertib + Phenformin; first compound 0.1581 µM) | relative viability (Alisertib + Phenformin; first compound 0.5 µM) | relative viability (Alisertib + OSI-027; first compound 0.005 µM) | relative viability (Alisertib + OSI-027; first compound 0.01581 µM) | relative viability (Alisertib + OSI-027; first compound 0.05 µM) | relative viability (Alisertib + OSI-027; first compound 0.1581 µM) | relative viability (Alisertib + OSI-027; first compound 0.5 µM) |
| --- | --- | --- | --- | --- | --- | --- | --- | --- | --- | --- | --- | --- | --- | --- | --- | --- | --- | --- | --- | --- |
| NCI-H3122 | 0.238 | 0.214 | 0.198 | 0.176 | 0.131 | 0.244 | 0.306 | 0.217 | 0.218 | 0.191 | 0.376 | 0.371 | 0.37 | 0.248 | 0.142 | 0.86 | 0.754 | 0.599 | 0.336 | 0.149 |
| PC-3 [JPC-3] | 0.669 | 0.649 | 0.591 | 0.526 | 0.493 | 0.955 | 0.981 | 0.646 | 0.474 | 0.386 | 0.488 | 0.456 | 0.484 | 0.377 | 0.293 | 0.784 | 0.764 | 0.703 | 0.407 | 0.306 |
| PC-14 | 0.757 | 0.56 | 0.385 | 0.234 | 0.0465 | 0.845 | 0.877 | 0.654 | 0.145 | 0.112 | 0.481 | 0.453 | 0.363 | 0.0963 | 0.0647 | 0.659 | 0.8 | 0.393 | 0.0786 | 0.049 |
| RERF-LC-KJ | 0.872 | 0.819 | 0.357 | 0.301 | 0.198 | 0.831 | 0.662 | 0.692 | 0.206 | 0.196 | 0.382 | 0.377 | 0.246 | 0.219 | 0.233 | 0.539 | 0.468 | 0.354 | 0.181 | 0.191 |
| SK-LU-1 | 0.484 | 0.457 | 0.203 | 0.275 | 0.279 | 0.775 | 0.628 | 0.389 | 0.362 | 0.239 | 0.455 | 0.462 | 0.22 | 0.21 | 0.142 | 0.369 | 0.233 | 0.182 | 0.18 | 0.163 |
| SK-MES-1 | 0.525 | 0.556 | 0.603 | 0.468 | 0.183 | 0.914 | 0.801 | 0.673 | 0.25 | 0.18 | 0.643 | 0.684 | 0.502 | 0.38 | 0.146 | 0.563 | 0.572 | 0.276 | 0.21 | 0.117 |
| SW 1573 | 0.512 | 0.533 | 0.121 | 0.119 | 0.104 | 0.776 | 0.466 | 0.434 | 0.248 | 0.113 | 0.371 | 0.256 | 0.178 | 0.113 | 0.0928 | 0.556 | 0.5 | 0.284 | 0.148 | 0.102 |
| UMC-11 | 0.344 | 0.246 | 0.15 | 0.148 | 0.185 | 0.515 | 0.285 | 0.117 | 0.103 | 0.0832 | 0.235 | 0.192 | 0.176 | 0.174 | 0.164 | 0.328 | 0.219 | 0.165 | 0.175 | 0.189 |
